Measured values as given in patent publication US20120184035A1, “Methods and Compositions For Reprogramming Cells” (priority 2011, published 2012).
Entries after “also recorded” stand apart in the source; their conditions may differ.

System: 293T cells
Test: RT-PCR of muscle specific gene expression in permeabilized 293T cells incubated with cell extracts, with or without transcription modifying agents or conditioned media
Assay type: cell-based, human
Source text: A hallmark of a particular cell type is its gene expression profile. Reverse-Transcription of the expressed RNA in a cell, combined with Polymerase Chain Reaction aided amplification of the signal (RT-PCR), was used to detect the expression levels of these genes and provide a method to detect cell reprogramming. This example illustrates RT-PCR assays for detection of muscle specific genes in C2C12 cells (FIG. 5). Total RNA prepared from C2C12 cells at different stages of differentiation (t=0, t=3, t=6) or from 293T cells or HeLa cells were used in an RT-PCR reaction with primers specific to the muscle specific genes, MyoD or Myogenin. […] RT-PCR conditions for the detection of late muscle specific genes Troponin T and Myosin Heavy Chain, and for the hES cell marker Oct-4, were also established. Due to its relatively high sensitivity, gene expression analysis using RT-PCR was used to detect expression of marker genes in permeablized and potentially reprogrammed recipient cells.
Cell extracts were introduced into a recipient cell by reversible permeabilization of recipient cells using the pore-forming, calcium sensitive bacterial toxin Streptolysin O (SLO) and exposure of these cells to reprogramming cell extracts. Limited and transient exposure of cells to low doses of SLO in the absence of calcium ions allows the formation of membrane pores large enough to allow the passive diffusion of proteins up to the size of 100 kilodaltons, but not large enough for organelles. Subsequently, reversal of this membrane permeabilization by adding calcium ions allows the membrane to repair itself and the resealed cells are viable and can proliferate. During the permeabilization process, the recipient cell was incubated with whole cell extracts or nuclear or cytoplasmic extracts of a desired cell type (“donor cell”), and (in some experiments) in the presence of permeabilization/reprogramming promoting agents such as an energy generating system and cytoskeletal disruptors. The whole cell extract is believed to provide regulatory factors that are taken up by the permeabilizing recipient cell. The plasma membrane was then resealed, the cells were allowed to recover and cultured further, in conditions conducive to desired reprogramming. […] The resultant changes in gene expression profiles may arise over time, and may be further promoted by subsequent rounds of treatment with donor cell extract.
Cells were treated with reprogramming extracts (or control 293T “self” extracts) as above.
We next turned to testing the effects of these treatments on reprogramming potential by evaluating reprogramming of 293T or primary NHDF-N cells incubated with cell extracts from the C2C12 muscle differentiating system by gene expression analysis (RT-PCR). In the case of examining the effects of transcription modifying agents, several variations of treatment plans were envisioned. The agents can be applied before or after permeabilizing the cells (or both) and for different durations of time, as long as the cells survive the treatment. Plausibly, different treatment designs could potentially lead to different effects.

[1] = agents applied after priming/permeabilization of C2C12 extract exposed 293T cells, 5-aza 10 uM, SB 10 mM, TSA 10 nM
[2] = agents for 48 hours before permeabilization, 293T self extract

Structure (SMILES)	level of MyoD RNA detection [1]	level of MyoD RNA detection (agents applied after priming/permeabilization of C2C12 extract exposed 293T cells, 5-aza 10 uM, SB 10 mM, TSA 10 nM, listed as SB)	MyoD expression in cells incubated with control self extract [2]	level of MyoD RNA detection (agents for 48 hours before permeabilization, C2C12 extract incubated 293T cells, relative to C2C12 extract alone, listed as SB)	MyoD expression in cells primed with control self extract (agent applied post priming, 293T self extract)	level of MyoD RNA detection (agents for 48 hours before permeabilization, C2C12 extract incubated 293T cells, relative to C2C12 extract alone)	Troponin T transcript at later timepoints (later timepoints, modifier treated and C2C12 extract incubated 293T cells)	level of MyoD RNA detection (agents for 48 hours before permeabilization, C2C12 extract incubated 293T cells, relative to C2C12 extract alone, listed as TSA)
CCCC(=O)[O-].[Na+] [Sodium Butyrate]	small increase in expression	did not appear to enhance the level of MyoD expression	low level of expression of MyoD	appeared to enhance the level detection of this RNA; also recorded: enhance the level detection of this RNA slightly				
Nc1ncn([C@@H]2O[C@H](CO)[C@@H](O)[C@H]2O)c(=O)n1 [5-azacytidine]	did not appear to enhance the level of MyoD expression		low level of expression of MyoD		low level of expression of MyoD	appeared to enhance the level detection of this RNA; also recorded: enhance the level detection of this RNA slightly	more abundant and more specific	
CC(/C=C/C(=O)NO)=C\[C@@H](C)C(=O)c1ccc(N(C)C)cc1 [Trichostatin A]	did not appear to enhance the level of MyoD expression							appeared to enhance the level detection of this RNA; also recorded: enhance the level detection of this RNA slightly
